Patent US10919935B2, “Antimicrobial peptide derived from myxinidin peptide and uses thereof” (INDUSTRY-ACADEMIC COOPERATION FOUNDATION, CHOSUN UNIVERSITY, priority 2015, dated 2021)
Residues, ends and D or L forms follow the SMILES beside them.

Legend:
Type in all cases: cell-based
[1] = tested on: membrane of Escherichia coli; assay: Confocal microscopy analysis with PI (Propidium iodide); details: reaction for 10 minutes
Experimental: Specifically, myxinidin 2 or myxinidin 3, which have been synthesized in the above Example 1, was treated with PI (Propidium Iodide) solution and Escherichia coli or Staphylococcus aureus followed by reaction for 10 minutes. After the reaction, only pure Escherichia coli were collected by centrifuge (4,000 rpm) followed by removal of supernatant. Then, by adding 50 μl of physiological saline (PBS), cell aggregate was removed. By using LSM510 confocal microscope, the working mechanism of the peptide on Escherichia coli and Staphylococcus aureus membrane was determined.

[2] = tested on: Pseudomonas aeruginosa 4076; assay: Anti-microbial disk diffusion susceptibility test with gelatin; details: 0.1% gelatin
Description: (§1) FIGS. 4A to 4C show the results of determining the antimicrobial activity when the peptides of the present invention are admixed with gelatin used as a wound moisturizing agent. FIG. 4A: Determination of survival ratio of skin keratinocyte cells in accordance with a change in gelatin concentration; FIG. 4B: Measurement of minimum inhibitory concentration (MIC, μM) of the peptides for Staphylococcus aureus (S. aureus 3018), Acinetobacter baumannii (A. baumannii 719705), and Pseudomonas aeruginosa (P. aeruginosa 4076), in which the result is shown for different gelatin concentrations; FIG. 4C: Result of the anti-microbial disk diffusion susceptibility test carried out for Staphylococcus aureus (S. aureus 3018), Acinetobacter baumannii (A. baumannii 719705), and Pseudomonas aeruginosa (P. aeruginosa 4076), in which the result is shown for different peptide concentrations and also for the presence or absence of gelatin co-blending.
(§2) To specifically determine the antimicrobial activity at the time of mixing the synthetic peptide of the present invention with gelatin, myxinidin 2 and myxinidin 3 synthetic peptides were admixed with 0.1% gelatin. Furthermore, to determine the antimicrobial activity, a minimum inhibitory concentration measurement and an anti-microbial disk diffusion susceptibility test as an agar diffusion method were carried out for Acinetobacter baumannii, Pseudomonas aeruginosa, and Staphylococcus aureus.
(§3) Specifically, cultured Acinetobacter baumannii, Pseudomonas aeruginosa, and Staphylococcus aureus were diluted to a concentration of 2×10^5 cells/ml, admixed with a solution in which 0.1% gelatin is mixed with 1% agarose, and cultured. To see the antimicrobial activity, the peptide was applied on a 6 mm round disk, in which the peptide was applied at various different concentrations, and the diffusion level was measured.

[3] = tested on: Staphylococcus aureus 3018; assay: as above; details: 0.1% gelatin
Description: as §1, §2, §3

[4] = tested on: Acinetobacter baumannii 719705; assay: as above; details: 0.1% gelatin
Description: as §1, §2, §3

[5] = tested on: human skin keratinocyte cells infected with bacteria having tolerance to antibiotics; assay: Migration of infected skin keratinocyte cells (scrape wound); details: peptide at 2 times MIC
Description: To determine the wound healing effect of the peptide of the present invention by activating migration of skin keratinocyte cells infected with Acinetobacter baumannii, Pseudomonas aeruginosa, or Staphylococcus aureus, which are the bacterial strain having tolerance to antibiotics, the adhered cells were damaged to have an infection followed by a treatment with myxinidin 2 or myxinidin 3. The resulting cells were then observed under a microscope.
Specifically, human skin keratinocyte cells were cultured at 1×10^6 cells/ml, and then scraped off using a tip. Then, the cells were infected with Staphylococcus aureus, Acinetobacter baumannii, or Pseudomonas aeruginosa, which are the bacterial strain having tolerance to antibiotics, followed by a treatment with the peptide at a concentration that is 2 times higher than the minimum inhibitory concentration. Cell migration was then observed under a microscope.

[6] = infection with Acinetobacter baumannii
[7] = infection with Pseudomonas aeruginosa
[8] = infection with Staphylococcus aureus

Row | SMILES | Activity on membrane (PI, confocal microscopy) [1] | Antimicrobial activity with gelatin (disk diffusion) [2] | Antimicrobial activity with gelatin (disk diffusion) [3] | Antimicrobial activity with gelatin (disk diffusion) [4] | Cell migration / regeneration of scraped keratinocytes [5, 6] | Cell migration / regeneration of scraped keratinocytes [5, 7] | Cell migration / regeneration of scraped keratinocytes [5, 8]
1 | CC[C@H](C)[C@H](NC(=O)[C@H](Cc1c[nH]c2ccccc12)NC(=O)[C@H](CCCNC(=N)N)NC(=O)[C@@H](NC(=O)[C@@H](N)CCCNC(=N)N)[C@@H](C)CC)C(=O)N[C@@H](CC(C)C)C(=O)N[C@@H](CCCNC(=N)N)C(=O)N[C@@H](Cc1ccc(O)cc1)C(=O)N[C@@H](Cc1c[nH]c2ccccc12)C(=O)N[C@@H](CCCNC(=N)N)C(=O)N[C@@H](Cc1c[nH]c2ccccc12)C(=O)N[C@@H](CO)C(N)=O [Myxinidin 3, RIRWILRYWRWS-NH2] (H-RIRWILRYWRWS-NH2; N-terminus assumed) | work on the membrane of Escherichia coli and Staphylococcus aureus to show PI | exhibited the antimicrobial activity | a similar antimicrobial activity was maintained | exhibited a slightly higher antimicrobial activity when the treatment is made only with the peptide | fast regeneration rate | proliferation with no cell death | more rapid regeneration
2 | CC[C@H](C)[C@H](NC(=O)[C@H](Cc1c[nH]c2ccccc12)NC(=O)[C@H](CCCCN)NC(=O)[C@@H](NC(=O)[C@@H](N)CCCCN)[C@@H](C)CC)C(=O)N[C@@H](CC(C)C)C(=O)N[C@@H](CCCCN)C(=O)N[C@@H](Cc1ccc(O)cc1)C(=O)N[C@@H](Cc1c[nH]c2ccccc12)C(=O)N[C@@H](CCCCN)C(=O)N[C@@H](Cc1c[nH]c2ccccc12)C(=O)N[C@@H](CO)C(N)=O [Myxinidin 2, KIKWILKYWKWS-NH2] (H-KIKWILKYWKWS-NH2; N-terminus assumed) | work on the membrane of Escherichia coli and Staphylococcus aureus to show PI | exhibited the antimicrobial activity | a similar antimicrobial activity was maintained | the antimicrobial activity was maintained | proliferation with no cell death | fast regeneration rate | Proliferation with no cell death
